pIC50, pKd, pKi: −log10 of the molar value. The source made the active and inactive calls. No cut-off for these calls is given here.
Legend:
[1] = Inhibition of Class 1 PI3K/mTOR in human A2058 cells assessed as reduction in Akt phosphorylation at Ser473 residue incubated for 1 hr by InCell Western assay; assay type: cell-based; settings: A2058, 1 h
[2] = molecular target: T1, Phosphatidylinositol 4,5-bisphosphate 3-kinase catalytic subunit alpha isoform (Homo sapiens, UniProt P42336); assay: Displacement of Alexafluor labelled kinase tracer314 from recombinant N-terminal His6-tagged PI3K p110alpha (unknown origin) incubated for 1 hr by FRET-based LanthaScreen Eu kinase binding assay
[3] = molecular target: Serine/threonine-protein kinase mTOR (Homo sapiens, UniProt P42345); assay: Displacement of Alexafluor labelled kinase tracer314 from recombinant human C-terminal GST-tagged mTOR (1360 to 2549 amino acids) expressed in insect cells incubated for 1 hr by FRET-based LanthaScreen Eu kinase binding assay
[4] = molecular target: Phosphatidylinositol 4,5-bisphosphate 3-kinase catalytic subunit gamma isoform (Homo sapiens, UniProt P48736); assay: Binding affinity to wild-type human partial length PIK3CG (S144 to A1102 residues) expressed in mammalian expression system by quantitative PCR based KINOMEscan assay
[5] = molecular target: T1, Phosphatidylinositol 4,5-bisphosphate 3-kinase catalytic subunit alpha isoform; assay: Binding affinity to wild-type human partial length PIK3CA (R108 to N1068 residues) expressed in mammalian expression system by quantitative PCR based KINOMEscan assay
[6] = molecular target: PI3-kinase p110-alpha/p85-alpha (Homo sapiens) (UniProt P27986+P42336); assay: Inhibition of Wortmannin covalent binding to N-terminal His-tagged recombinant human PI3K p110alpha/p85alpha Lys802 expressed in baculovirus expression system preincubated for 1 hr followed by Wortmannin addition and measured after 20 mins by SDS-PAGE based immunoblot assay
[7] = Metabolic stability in mouse liver microsomes assessed as compound remaining after 30 mins; assay type: ADME, Microsome; settings: read-out: Stability
[8] = Metabolic stability in dog liver microsomes assessed as compound remaining after 30 mins; assay type: ADME, Canis lupus familiaris, Microsome; settings: read-out: Stability
[9] = Metabolic stability in rat liver microsomes assessed as compound remaining after 30 mins; assay type: ADME, Microsome; settings: read-out: Stability
[10] = Metabolic stability in human liver microsomes assessed as compound remaining after 30 mins; assay type: ADME, Microsome; settings: read-out: Stability
[11] = Intrinsic clearance in human hepatocytes assessed per 10^6 cells; assay type: ADME, cell-based, Hepatocyte; settings: read-out: CLH
[12] = Intrinsic clearance in rat hepatocytes assessed per 10^6 cells; assay type: ADME, cell-based, Hepatocyte; settings: read-out: CLH
[13] = Intrinsic clearance in dog hepatocytes assessed per 10^6 cells; assay type: ADME, cell-based, Canis lupus familiaris, Hepatocyte; settings: read-out: CLH
[14] = Intrinsic clearance in mouse hepatocytes assessed per 10^6 cells; assay type: ADME, cell-based, Hepatocyte; settings: read-out: CLH
[15] = Half-life clearance in human hepatocytes; assay type: ADME, cell-based, Hepatocyte
[16] = Half-life in rat hepatocytes; assay type: ADME, cell-based, Hepatocyte
[17] = Half-life in dog hepatocytes; assay type: ADME, cell-based, Canis lupus familiaris, Hepatocyte
[18] = Half-life in mouse hepatocytes; assay type: ADME, cell-based, Hepatocyte
[19] = Cmax in C57BL/6J mouse plasma at 50 mg/kg, po administered as single dose after 30 mins by LC-MS analysis; assay type: ADME, organism-based; parameters: dose 50 mg/kg, route oral
[20] = Tmax in C57BL/6J mouse plasma at 50 mg/kg, po administered as single dose by LC-MS analysis; assay type: ADME, organism-based
[21] = Terminal half-life in C57BL/6J mouse plasma at 50 mg/kg, po administered as single dose by LC-MS analysis; assay type: ADME, organism-based; settings: read-out: beta t1/2 (converted)
[22] = AUC (0 to 8 hrs) in C57BL/6J mouse plasma at 50 mg/kg, po administered as single dose by LC-MS analysis; assay type: ADME, organism-based; parameters: dose 50 mg/kg, time < 8 hr, route oral
[23] = Clearance in C57BL/6J mouse plasma at 50 mg/kg, po administered as single dose by LC-MS analysis; assay type: ADME, organism-based
[24] = Cmax in C57BL/6J mouse brain at 50 mg/kg, po administered as single dose after 30 mins by LC-MS analysis; assay type: ADME, organism-based; parameters: dose 50 mg/kg, route oral
[25] = Tmax in C57BL/6J mouse brain at 50 mg/kg, po administered as single dose by LC-MS analysis; assay type: ADME, organism-based
[26] = Terminal half-life in C57BL/6J mouse brain at 50 mg/kg, po administered as single dose by LC-MS analysis; assay type: ADME, organism-based; settings: read-out: beta t1/2 (converted)
[27] = AUC (0 to 8 hrs) in C57BL/6J mouse brain at 50 mg/kg, po administered as single dose by LC-MS analysis; assay type: ADME, organism-based; parameters: dose 50 mg/kg, time < 8 hr, route oral
[28] = Cmax in C57BL/6J mouse thigh muscle at 50 mg/kg, po administered as single dose after 30 mins by LC-MS analysis; assay type: ADME, organism-based; parameters: dose 50 mg/kg, route oral
[29] = Tmax in C57BL/6J mouse thigh muscle at 50 mg/kg, po administered as single dose by LC-MS analysis; assay type: ADME, organism-based
[30] = Terminal half-life in C57BL/6J mouse thigh muscle at 50 mg/kg, po administered as single dose by LC-MS analysis; assay type: ADME, organism-based; settings: read-out: beta t1/2 (converted)
[31] = AUC (0 to 8 hrs) in C57BL/6J mouse thigh muscle at 50 mg/kg, po administered as single dose by LC-MS analysis; assay type: ADME, organism-based; parameters: dose 50 mg/kg, time < 8 hr, route oral
[32] = Fraction unbound in rat brain; assay type: ADME, tissue-based
[33] = test system: Mus musculus; assay: In vivo inhibition of Class 1 PI3K/mTOR in C57BL/6J mouse assessed as increase in plasma glucose level at 50 mg/kg, po administered as single dose after 10 mins to 1 hr by colorimetric assay; assay type: functional, organism-based
[34] = test system: Mus musculus; assay: In vivo inhibition of Class 1 PI3K/mTOR in C57BL/6J mouse assessed as increase in plasma glucose level at 50 mg/kg, po administered as single dose after 2 hr by colorimetry based immunoassay; assay type: functional, organism-based
[35] = Toxicity in po dosed male Wistar rat; assay type: organism-based; settings: in vivo
[36] = Toxicity in po dosed female Wistar rat; assay type: organism-based; settings: in vivo
[37] = AUC (0 to 8 hrs) at steady state in male Wistar rat at 1 mg/kg/day, po after 4 weeks; assay type: ADME, organism-based; parameters: dose 1 mg/kg/day, time < 8 hr, route oral; settings: in vivo
[38] = AUC (0 to 8 hrs) at steady state in female Wistar rat at 0.5 mg/kg, po after 4 weeks; assay type: ADME, organism-based; parameters: time < 8 hr, dose 0.5 mg/kg, route oral; settings: in vivo
[39] = Toxicity in po dosed male Beagle dog; assay type: organism-based, Canis lupus familiaris; settings: in vivo
[40] = Toxicity in po dosed female Beagle dog; assay type: organism-based, Canis lupus familiaris; settings: in vivo
[41] = AUClast at steady state in male Beagle dog at 1 mg/kg/day, po after 4 weeks; assay type: ADME, organism-based, Canis lupus familiaris; settings: in vivo
[42] = AUClast at steady state in female Beagle dog at 3 mg/kg/day, po after 4 weeks; assay type: ADME, organism-based, Canis lupus familiaris; settings: in vivo
[43] = test system: OVCAR-3; assay: Antitumor activity against human OVCAR3 cells xenografted in BALB/c nude mouse assessed as reduction in tumor growth at 25 mg/kg, po administered once daily starting from 17 days post inoculation and measured thrice per week; assay type: functional, organism-based
[44] = Toxicity in BALB/c nude mouse assessed as effect on body weight at 25 mg/kg, po administered once daily starting from 17 days post inoculation and measured after 20 to 40 days post inoculation; assay type: organism-based; settings: in vivo
[45] = organism: Homo sapiens; assay: Inhibition of Class 1 PI3K/mTOR in human SKOV3 cells assessed as reduction in Akt phosphorylation at Ser473 residue incubated for 1 hr by InCell Western assay; assay type: cell-based
[46] = test system: A2058; assay: Inhibition of Class 1 PI3K/mTOR in human A2058 cells assessed as reduction in Akt phosphorylation incubated for 1 hr by InCell Western assay; assay type: cell-based
[47] = test system: A2058; assay: Inhibition of Class 1 PI3K/mTOR in human A2058 cells assessed as reduction in GSK3 phosphorylation incubated for 1 hr by InCell Western assay; assay type: cell-based
[48] = test system: A2058; assay: Inhibition of Class 1 PI3K/mTOR in human A2058 cells assessed as reduction in p70S6K phosphorylation incubated for 1 hr by InCell Western assay; assay type: cell-based
[49] = test system: A2058; assay: Antiproliferative activity against human A2058 cells at 5 to 0.02 uM after 72 hrs by […] staining based assay; assay type: functional, cell-based
[50] = test system: SK-OV-3; assay: Antiproliferative activity against human SKOV3 cells at 5 to 0.02 uM after 72 hrs by […] staining based assay; assay type: functional, cell-based
[51] = cells; settings: Homo sapiens, A2058, 1 h
Description: Inhibition of Class 1 PI3K/mTOR in human A2058 cells assessed as reduction in S6 phosphorylation at Ser235/236 residue incubated for 1 hr by InCell Western assay

T1 sequence (P42336 whole entry, the tested form may be a part, canonical isoform): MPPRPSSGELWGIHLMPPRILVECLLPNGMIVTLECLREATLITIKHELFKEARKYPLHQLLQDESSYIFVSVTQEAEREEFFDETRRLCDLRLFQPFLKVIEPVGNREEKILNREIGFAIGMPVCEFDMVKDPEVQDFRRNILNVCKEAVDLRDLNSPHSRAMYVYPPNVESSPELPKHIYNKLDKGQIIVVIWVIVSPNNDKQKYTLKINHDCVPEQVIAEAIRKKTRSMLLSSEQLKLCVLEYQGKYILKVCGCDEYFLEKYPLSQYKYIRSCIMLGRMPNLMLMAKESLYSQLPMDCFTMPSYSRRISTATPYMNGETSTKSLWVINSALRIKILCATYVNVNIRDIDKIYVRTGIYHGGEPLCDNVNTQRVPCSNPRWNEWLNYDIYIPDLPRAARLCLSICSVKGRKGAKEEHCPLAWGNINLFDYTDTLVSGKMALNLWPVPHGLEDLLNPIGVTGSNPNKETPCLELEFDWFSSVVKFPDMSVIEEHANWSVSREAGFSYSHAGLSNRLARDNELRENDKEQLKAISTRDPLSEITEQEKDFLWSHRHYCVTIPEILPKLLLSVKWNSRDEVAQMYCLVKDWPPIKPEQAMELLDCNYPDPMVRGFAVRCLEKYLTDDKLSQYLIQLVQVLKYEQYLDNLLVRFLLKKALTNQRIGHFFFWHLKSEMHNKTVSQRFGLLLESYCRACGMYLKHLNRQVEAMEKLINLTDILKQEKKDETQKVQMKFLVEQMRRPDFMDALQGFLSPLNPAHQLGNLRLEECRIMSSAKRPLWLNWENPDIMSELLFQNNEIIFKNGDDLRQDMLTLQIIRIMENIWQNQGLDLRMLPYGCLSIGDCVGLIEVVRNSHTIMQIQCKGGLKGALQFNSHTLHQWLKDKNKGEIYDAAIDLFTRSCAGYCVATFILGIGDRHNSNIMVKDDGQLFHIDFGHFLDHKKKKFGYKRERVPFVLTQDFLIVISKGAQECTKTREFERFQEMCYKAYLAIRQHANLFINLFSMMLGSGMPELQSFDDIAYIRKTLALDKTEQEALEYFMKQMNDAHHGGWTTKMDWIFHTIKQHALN
Phosphatidylinositol 4,5-bisphosphate 3-kinase catalytic subunit gamma isoform, sequence (P48736 whole entry, the tested form may be a part, canonical isoform): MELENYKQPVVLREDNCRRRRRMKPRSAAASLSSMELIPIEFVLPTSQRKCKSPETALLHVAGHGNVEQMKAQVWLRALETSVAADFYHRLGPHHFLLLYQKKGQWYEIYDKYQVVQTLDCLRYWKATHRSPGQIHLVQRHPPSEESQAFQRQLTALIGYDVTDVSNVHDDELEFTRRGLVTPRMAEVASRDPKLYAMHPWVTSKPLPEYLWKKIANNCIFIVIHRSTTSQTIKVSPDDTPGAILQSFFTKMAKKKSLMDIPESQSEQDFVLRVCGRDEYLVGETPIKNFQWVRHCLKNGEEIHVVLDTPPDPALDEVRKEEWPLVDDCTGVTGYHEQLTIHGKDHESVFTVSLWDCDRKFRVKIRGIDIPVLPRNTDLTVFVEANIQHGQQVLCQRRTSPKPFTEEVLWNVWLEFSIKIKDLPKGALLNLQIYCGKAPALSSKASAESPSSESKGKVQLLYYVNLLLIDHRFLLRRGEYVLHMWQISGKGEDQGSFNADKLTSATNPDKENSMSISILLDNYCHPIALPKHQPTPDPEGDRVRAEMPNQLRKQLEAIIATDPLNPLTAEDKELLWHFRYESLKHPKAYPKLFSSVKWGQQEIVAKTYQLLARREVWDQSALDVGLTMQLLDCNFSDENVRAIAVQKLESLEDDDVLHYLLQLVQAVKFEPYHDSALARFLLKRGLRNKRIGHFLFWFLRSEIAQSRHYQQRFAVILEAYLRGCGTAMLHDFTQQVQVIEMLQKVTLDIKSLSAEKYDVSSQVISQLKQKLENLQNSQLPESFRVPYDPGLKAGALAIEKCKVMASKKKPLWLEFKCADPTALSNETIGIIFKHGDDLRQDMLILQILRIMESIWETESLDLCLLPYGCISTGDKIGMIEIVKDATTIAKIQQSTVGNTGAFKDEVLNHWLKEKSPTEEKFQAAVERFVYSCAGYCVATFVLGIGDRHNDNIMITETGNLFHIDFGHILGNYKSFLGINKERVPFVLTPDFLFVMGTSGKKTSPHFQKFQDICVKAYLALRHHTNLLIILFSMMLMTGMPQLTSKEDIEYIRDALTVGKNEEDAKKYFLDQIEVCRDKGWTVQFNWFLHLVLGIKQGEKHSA

## C[C@H]1COCCN1c1nc(-c2cnc(N)cc2C(F)F)nc(N2CCOCC2)n1
[1]
  pIC50: 7.21
[2]
  pKi: 7.95
[3]
  pKi: 8.13
[4]
  pKd: 8.00
[5]
  pKd: 9.08
[6]
  inhibition: Active
[7]
  remaining at 0.5 h: 73.2%
[8]
  remaining at 0.5 h: 97.4%
[9]
  remaining at 0.5 h: 106%
[10]
  remaining at 0.5 h: 81.5%
[11]
  hepatocyte CLint: 6 µL/min/1e6 cells
[12]
  hepatocyte CLint: 7 µL/min/1e6 cells
[13]
  hepatocyte CLint: 10 µL/min/1e6 cells
[14]
  hepatocyte CLint: 11 µL/min/1e6 cells
[15]
  half-life: 4.17 h
[16]
  half-life: 3.2 h
[17]
  half-life: 2.37 h
[18]
  half-life: 2.37 h
[19]
  Cmax: 7800 ng/mL
[20]
  Tmax: 0.5 h
[21]
  half-life: 4.7 h
[22]
  AUC(0-t) at 8 h: 27900 ng·h/mL
[23]
  CL/F: 20.9 mL/min/kg
[24]
  Cmax: 12600 ng/mL
[25]
  Tmax: 0.5 h
[26]
  half-life: 4.8 h
[27]
  AUC(0-t) at 8 h: 46500 ng·h/mL
[28]
  Cmax: 11900 ng/mL
[29]
  Tmax: 0.5 h
[30]
  half-life: 3.5 h
[31]
  AUC(0-t) at 8 h: 39200 ng·h/mL
[32]
  fraction unbound: 0.08
[33]
  inhibition: Active
[34]
  inhibition: Active
[35]
  NOAEL: 1 mg/kg/day
[36]
  NOAEL: 0.5 mg/kg
[37]
  AUC at 8 h: 335 ng·h/mL
[38]
  AUC at 8 h: 599 ng·h/mL
[39]
  NOAEL: 1 mg/kg/day
[40]
  NOAEL: 3 mg/kg/day
[41]
  AUC(0-t) at 672 h: 127 ng·h/mL
[42]
  AUC(0-t) at 672 h: 1070 ng·h/mL
[43]
  Activity: Active
[44]
  Activity: Non-Toxic
[45]
  inhibition: Active
[46]
  inhibition: Active
[47]
  inhibition: Active
[48]
  inhibition: Active
[49]
  Activity: Active
[50]
  Activity: Active
[51]
  pIC50: 7.21

From ChEMBL document CHEMBL4359834 (J Med Chem, 2019)
